Assay results reported in ChEMBL document CHEMBL4414549 (J Med Chem, 2019).

How the values were obtained:
in vivo [1] = conditions: Sprague-Dawley, rat, iv, 1 mg/kg
in vivo [2] = conditions: Sprague-Dawley, rat, iv, 1 mg/kg; remark: listed apart in the source
in vivo [3] = conditions: Sprague-Dawley, rat, iv, 1 mg/kg; remark: listed apart in the source
in vivo [4] = conditions: Sprague-Dawley, rat, po, 5 mg/kg
in vivo [5] = conditions: Sprague-Dawley, rat, po, 5 mg/kg; remark: listed apart in the source
in vivo [6] = conditions: Sprague-Dawley, rat, po, 5 mg/kg; remark: listed apart in the source
in vivo [7] = conditions: Sprague-Dawley, rat, po, 5 mg/kg; remark: listed apart in the source
[8] = Oral bioavailability in human in fed state at 560 mg administered daily; assay type: ADME, organism-based; conditions: in vivo
[9] = Oral bioavailability in human in fasting state at 560 mg administered daily; assay type: ADME, organism-based; conditions: in vivo
[10] = Cmax in ICR mouse plasma at 14.5 mg/kg, po administered as single dose by LC-MS/MS analysis; assay type: ADME, organism-based; parameters: dose 14.5 mg/kg, route oral
[11] = Plasma concentration in ICR mouse at 14.5 mg/kg, po administered as single dose measured at 2 hrs by LC-MS/MS analysis; assay type: ADME, organism-based
[12] = Plasma concentration in ICR mouse at 14.5 mg/kg, po administered as single dose measured at 4 hrs by LC-MS/MS analysis; assay type: ADME, organism-based
[13] = Plasma concentration in ICR mouse at 2.2 mg/kg, po administered as single dose measured at 0.5 hrs by LC-MS/MS analysis; assay type: ADME, organism-based
[14] = Plasma concentration in ICR mouse at 4.4 mg/kg, po administered as single dose measured at 0.5 hrs by LC-MS/MS analysis; assay type: ADME, organism-based
[15] = Plasma concentration in ICR mouse at 8.9 mg/kg, po administered as single dose measured at 0.5 hrs by LC-MS/MS analysis; assay type: ADME, organism-based
[16] = Plasma concentration in ICR mouse at 17.7 mg/kg, po administered as single dose measured at 0.5 hrs by LC-MS/MS analysis; assay type: ADME, organism-based
[17] = Plasma concentration in ICR mouse at 0.7 mg/kg, po administered as single dose measured at 0.5 hrs by LC-MS/MS analysis; assay type: ADME, organism-based
[18] = Plasma concentration in ICR mouse at 1.4 mg/kg, po administered as single dose measured at 0.5 hrs by LC-MS/MS analysis; assay type: ADME, organism-based
[19] = Plasma concentration in ICR mouse at 2.9 mg/kg, po administered as single dose measured at 0.5 hrs by LC-MS/MS analysis; assay type: ADME, organism-based
[20] = Plasma concentration in ICR mouse at […], po administered as single dose measured at 0.5 hrs by LC-MS/MS analysis; assay type: ADME, organism-based

half-life (in vivo [1]) [min] | Vd (in vivo [2]) [L/kg] | clearance (in vivo [3]) [L/h/kg] | Tmax (in vivo [4]) [min] | Cmax (in vivo [5]) [µg/mL] | AUC (in vivo [6]) [µg·h/mL] | bioavailability (in vivo [7]) [%] | Cmax [10] [µM] | concentration at 2 h [11] [µM] | concentration at 4 h [12] [µM] | concentration at 0.5 h [13] [µM] | concentration at 0.5 h [14] [µM] | concentration at 0.5 h [15] [µM] | concentration at 0.5 h [16] [µM] | concentration at 0.5 h [17] [µM] | concentration at 0.5 h [18] [µM] | concentration at 0.5 h [19] [µM] | concentration at 0.5 h [20] [µM] | SMILES | bioavailability [8] [%] | bioavailability [9] [%]
15.6 | 2.85 | 10.1 | 140 | 0.0104 | 0.0503 | 8.6 | – | – | – | – | – | – | – | – | – | – | – | C=CC(=O)N1CC(C2CCNc3c(C(N)=O)c(-c4ccc(Oc5ccccc5)cc4)nn32)C1 (stereo not given) | – | –
– | 2.32 | 4.61 | 19.8 | 0.235 | 0.257 | 23.6 | 4.8 | 0.47 | 0.09 | 0.07 | 0.18 | 0.35 | 0.5 | 0.04 | 0.11 | 0.32 | 0.59 | C=CC(=O)N1CCC([C@@H]2CCNc3c(C(N)=O)c(-c4ccc(Oc5ccccc5)cc4)nn32)CC1 [ZANUBRUTINIB] | – | –

Further lines, the compound ahead of its results:

SMILES | half-life (in vivo [1]) [min] | Vd (in vivo [2]) [L/kg] | clearance (in vivo [3]) [L/h/kg] | Tmax (in vivo [4]) [min] | Cmax (in vivo [5]) [µg/mL] | AUC (in vivo [6]) [µg·h/mL] | bioavailability (in vivo [7]) [%] | Cmax [10] [µM] | concentration at 2 h [11] [µM] | concentration at 4 h [12] [µM] | concentration at 0.5 h [13] [µM] | concentration at 0.5 h [14] [µM] | concentration at 0.5 h [15] [µM] | concentration at 0.5 h [16] [µM] | concentration at 0.5 h [17] [µM] | concentration at 0.5 h [18] [µM] | concentration at 0.5 h [19] [µM] | concentration at 0.5 h [20] [µM] | bioavailability [8] [%] | bioavailability [9] [%]
C=CC(=O)NCC1CCNc2c(C(N)=O)c(-c3ccc(Oc4ccccc4)cc3)nn21 (stereo not given) | 12.6 | 1.19 | 5.63 | 19.8 | 0.0196 | 0.0511 | 5.7 | – | – | – | – | – | – | – | – | – | – | – | – | –
C=CC(=O)N1CCC[C@@H](n2nc(-c3ccc(Oc4ccccc4)cc3)c3c(N)ncnc32)C1 [IBRUTINIB] | – | – | – | – | – | – | – | – | – | – | – | – | – | – | – | – | – | – | 8.4 | 3.9
C=CC(=O)Nc1ccccc1C1CCNc2c(C(N)=O)c(-c3ccc(OCC4CC4)cc3)nn21 (stereo not given) | 24 | 1.01 | 4.94 | 19.8 | 0.202 | 0.344 | 34 | – | – | – | – | – | – | – | – | – | – | – | – | –
